From paper PMC7069976, “Improved secretion of glycoproteins using an N-glycan-restricted passport sequence tag recognized by cargo receptor” (Nature Communications, 2020)

Columns and labels:
MCFD2 [1] = target: T1, MCFD2 (Homo sapiens, UniProt Q8NI22); test: NMR chemical shift perturbation of [15N]MCFD2 upon peptide addition; assay type: binding
T1 construct: The preparation of ERGIC-53^CRD, MCFD2, and their complexes was performed as previously described; made in house
T1 sequence (Q8NI22 27-146): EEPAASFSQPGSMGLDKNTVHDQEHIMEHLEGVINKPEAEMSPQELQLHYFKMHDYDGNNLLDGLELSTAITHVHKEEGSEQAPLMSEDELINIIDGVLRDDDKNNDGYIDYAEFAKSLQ

HCT116 cells = test: α1-antitrypsin (AAT) secretion level (ELISA) from HCT116 cells; assay type: cell-based
Text: (§1) For expression of the FVIII and FV full-length and deletion mutant proteins in mammalian cells, the codon-optimized FVIII and FV genes were inserted into the p3XFLAG-CMV-14 Expression Vector and p3XFLAG-CMV-9 Expression Vector, respectively (Sigma-Aldrich, St. Louis, MO). For the expression of the wild-type and mutated AAT, EPO, and sFγRIIIa in mammalian cells, the corresponding genes (purchased from FASMAC Co., Ltd., Atsuki, Japan) were inserted into the p3XFLAG-CMV-9 Expression Vector (Sigma-Aldrich).
HCT116 and its mutated cells as well as HEK293T were maintained in Dulbecco’s modified Eagle’s medium (DMEM) supplemented with 10% fetal bovine serum in 5% CO2 at 37 °C. For complementary DNA (cDNA) transfection, cells were grown overnight and transfected using Polyethylenimine “Max” (Polysciences Inc.) as described previously. Expi293F cells (Thermo Fisher Scientific, Waltham, MA) were maintained in Expi293 Expression Medium (Thermo Fisher Scientific) in 5% CO2 at 37 °C on an orbital shaker platform rotating at 125 r.p.m. For cDNA transfection, cells were transfected with the ExpiFectamine 293 Transfection Kit (Thermo Fisher Scientific Inc.). Protein expression was performed in serum-free medium.
(§2) The secreted levels of FVIII and FV antigens in the culture medium were determined with an sandwich enzyme-linked immunosorbent assay (ELISA) method using the VisuLize FVIII Antigen Kit (Affinity Biologicals Inc., Ancaster, ON) and the Asssay Max™ Human Factor V ELISA Kit (ASSAYPRO, MO), respectively. The secreted levels of AAT and EPO antigens in the culture medium were determined with an ELASA method using the anti-AAT antibody (Agilent, Santa Clara, CA) and anti-Flag M2 antibody (Sigma-Aldrich), respectively.

MCFD2 [2] = target: T1, MCFD2; conditions: Arg44–His56; cited from earlier work
COS-7 cells = test: FV secretion level (ELISA) from COS-7 cells; assay type: cell-based
Text: as §1, §2

[3] = target: T2, MCFD2/ERGIC-53^CRD complex (Homo sapiens, UniProt P49257+Q8NI22); test: NMR titration (peak attenuation) of [15N]FVIII-derived peptide with MCFD2/ERGIC-53CRD; assay type: binding
T2 construct: made in house
T2 sequence (Q8NI22 27-146): T1 sequence (Q8NI22 27-146)
T2 sequence (P49257 44-267 partner limits assumed): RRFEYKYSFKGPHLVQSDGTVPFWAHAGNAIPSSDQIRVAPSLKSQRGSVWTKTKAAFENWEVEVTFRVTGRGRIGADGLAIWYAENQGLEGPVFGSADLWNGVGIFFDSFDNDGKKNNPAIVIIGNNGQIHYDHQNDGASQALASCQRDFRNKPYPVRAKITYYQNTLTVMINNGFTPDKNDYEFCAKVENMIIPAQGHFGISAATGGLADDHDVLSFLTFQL
Method: (§3) The preparation of ERGIC-53^CRD, MCFD2, and their complexes was performed as previously described[16],[18]. FVIII fragment (Asn776–Asp838) was prepared using the protocol described previously. The DNA fragment encoding residues Asn776–Asp838 of FVIII was cloned into the ubiquitin (Ub)-fused pET28a plasmid. The peptide fragment was expressed as a Ub-fused protein in Luria–Bertani broth or M9 minimal medium supplemented with [^15N]NH4Cl and/or [^13C]glucose for NMR experiments. The Ub-fused FVIII peptide was purified with immobilized Ni^2+-affinity chromatography and then digested with Ub carboxyl-terminal hydrolase (YUH1). The resultant peptide was purified by reversed-phase chromatography.
(§4) NMR measurements were performed using AVANCE 800 and AVANCE 500 spectrometers each equipped with a 5-mm triple-resonance cryogenic probe (Bruker BioSpin, Fallanden, Switzerland). The NMR data were processed and analyzed using TopSpin (Bruker BioSpin) and SPARKY software.
(§5) The chemical shifts of the FVIII fragment (Asn776–Asp838) were assigned by a standard protocol[18],[25]. To obtain the dissociation constant based on NMR peak attenuation, 0.1 mM [^15N]FVIII fragment was titrated with 0.02–0.3 mM of MCFD2/ERGIC-53^CRD or MCFD2 only in 20 mM 2-(N-morpholino) ethanesulfonic acid (MES; pH 6.0) containing 10 mM CaCl2, 150 mM NaCl, and 10% (v/v) D2O. […]

MCFD2 [4] = target: T1, MCFD2; test: NMR titration (peak attenuation) of [15N]FVIII-derived peptide with MCFD2 only; assay type: binding; conditions: absence of ERGIC-53CRD, 0.1 mM [15N]FVIII fragment, 0.02–0.3 mM MCFD2, 20 mM MES pH 6.0, 10 mM CaCl2, 150 mM NaCl, 10% D2O, read-out: dissociation constant
Method: as §3, §4, §5

DPPSDLLLLKQSNSSKILVGRWHLASEK
interaction of FV-derived peptide with MCFD2 (MCFD2 [1]; two molar equivalents, with vs without ERGIC-53CRD-derived peptide, pH 6.0, 2% DMSO-d6, 303 K): interacts with the EF-hand helices of MCFD2 in an ERGIC-53^CRD-dependent manner

ATZ-mutant: ATZ-mutant of alpha 1-antitrypsin, with or without C-terminal SDLLMLLRQS motif
ATZ-mutant secretion with vs without C-terminal motif (HCT116 cells; ATZ-mutant of alpha1-antitrypsin, HCT116, ELISA, n = 3): did not observe significant difference

RRFEYKYSFKGPH
chemical shift changes of MCFD2 induced by ERGIC-53CRD-derived tridecapeptide (MCFD2 [2]): induces widespread chemical shift changes of MCFD2

FV: recombinant wild-type factor V
FV secretion level (Supplementary Fig. 7B), average (COS-7 cells; Average, n = 3, FV = 1): 1 | FV secretion level (Supplementary Fig. 7B) (COS-7 cells; replicate 1): 1.05 | FV secretion level (Supplementary Fig. 7B) (COS-7 cells; replicate 2): 0.9799 | FV secretion level (Supplementary Fig. 7B) (COS-7 cells; replicate 3): 0.9702

DPPSDLLLLKQSNSSKILVGRWHLASEK [FVIII-derived peptide, FVIII fragment residues Asn776–Asp838, expressed as Ub-fused protein and cleaved with YUH1]
attenuation of NMR peak intensities upon addition of MCFD2/ERGIC-53CRD ([3]; 15N-labeled peptide 0.1 mM, one molar equivalent, pH 6.0, 283 K): significant attenuation in peak intensities for the region spanning residues 806–819 | Kd ([3]; NMR peak attenuation, 0.1 mM [15N]FVIII fragment titrated with 0.02–0.3 mM MCFD2/ERGIC-53CRD, 20 mM MES pH 6.0, 10 mM CaCl2, 150 mM NaCl, 10% D2O, read-out: dissociation constant): 11 µM | Kd (MCFD2 [4]): 120 µM | chemical shift changes of MCFD2 induced by FVIII-derived peptide (MCFD2 [1]; two molar equivalents of peptide, with vs without five equivalents ERGIC-53CRD-derived tridecapeptide, pH 6.0, 303 K): markedly enhanced spectral changes in the presence of the ERGIC-53-derived tridecapeptide

AAT: human α1-antitrypsin, three N-glycosylation sites
AAT secretion level, average (HCT116 cells; HCT116, Average, n = 3 independent transfections, AAT = 1): 1 | AAT secretion level (HCT116 cells; HCT116, replicate 1): 1.145 | AAT secretion level (HCT116 cells; HCT116, replicate 2): 1.033 | AAT secretion level (HCT116 cells; HCT116, replicate 3): 0.8224
